# Test results as given in patent US20250122208A1, “CHEMOKINE RECEPTOR MODULATORS AND USES THEREOF” (RAPT THERAPEUTICS, INC., priority 2023, published 2025).
# Target: T1, CCR4 receptor (Homo sapiens, UniProt P51679)
# T1 construct: beta-galactosidase enzyme-fragment tag; From own knowledge, PathHunter uses a ProLink/enzyme-donor fragment, usually at the receptor's C-terminus; expressed in transfected cells; host or cells: CHO-K1
# T1 sequence (P51679 1-360): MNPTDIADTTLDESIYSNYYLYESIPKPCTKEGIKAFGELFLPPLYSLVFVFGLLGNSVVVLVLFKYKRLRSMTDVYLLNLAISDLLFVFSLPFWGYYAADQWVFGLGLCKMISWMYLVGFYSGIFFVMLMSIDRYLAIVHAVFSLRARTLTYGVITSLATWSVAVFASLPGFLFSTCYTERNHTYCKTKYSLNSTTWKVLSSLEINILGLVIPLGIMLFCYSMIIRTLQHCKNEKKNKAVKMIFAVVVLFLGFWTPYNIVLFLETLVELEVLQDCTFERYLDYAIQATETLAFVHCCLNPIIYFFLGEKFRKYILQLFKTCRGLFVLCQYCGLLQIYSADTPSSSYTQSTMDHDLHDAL
# Test: CCR4 antagonist activity in Beta-Arrestin Cellular Assay (PathHunter, CCL22 challenge)
# Assay type: cell-based
# Details: CHO-K1 cells expressing the CCR4 receptor; CCL22 at EC80 (15 nM), 90 minutes; 30 min pre-incubation; read-out: Potency (CCR4 antagonist IC50 in the β-arrestin assay)
# Experimental: Example 39. Determination of CCR4 antagonist activity in Beta-Arrestin Cellular Assay
# CCR4 Antagonistic Activity was assessed in Beta-Arrestin Cellular Assay. Compounds were assessed in CHO-K1 cells expressing the CCR4 receptor modified to enable β-glactosidase detection of β-arrestin agonist activity stimulated by CCL22 in a chemiluminescence assay. Cells were seeded in a total volume of 20 μL into white walled, 384-well microplates and incubated at 37° C. prior to testing. Cells were pre-incubated with test compound for 30 min at 37° C. followed by agonist challenge with CCL22 at the EC80 concentration (15 nM) for 90 minutes. Assay signal was generated through a single addition of 12.5 or 15 μL ([…]) of PathHunter Detection reagent cocktail, followed by a one-hour incubation at room temperature. Microplates were read following signal generation with a PerkinElmer Envision™ instrument for chemiluminescent signal detection. Antagonist activity was analyzed using CBIS data analysis suite (ChemInnovation, CA). Antagonist activity was characterized as percentage inhibition calculated using the following formula:
# An IC50 of >500 nM is designated as Potency C, an IC50 of between 500 nM and 100 nM is designated as Potency B and an IC50 of <100 nM is designated as Potency A.
row,Structure (SMILES),IC50 [µM]
1,"C[C@@H](Nc1cc(N2CCC([C@H]3CCCN([C@H]4C[C@](C)(C(=O)O)C4)C3)CC2)nc2ncnn12)c1ccc(Cl)cc1F [Example 37, (1R,3r)-3-((R)-1′-(7-(((R)-1-(4-chloro-2-fluorophenyl)ethyl)amino)-[1,2,4]triazolo[1,5-a]pyrimidin-5-yl)-[3,4′-bipiperidin]-1-yl)-1-methylcyclobutane-1-carboxylic acid]",< 0.1
2,"C[C@@H](Nc1cc(N2CCC([C@H]3CCCN([C@H]4C[C@](C)(C(=O)O)C4)C3)CC2)nc2ncnn12)c1ccc(F)cc1F [Example 35, (1R,3r)-3-((R)-1′-(7-(((R)-1-(2,4-difluorophenyl)ethyl)amino)-[1,2,4]triazolo[1,5-a]pyrimidin-5-yl)-[3,4′-bipiperidin]-1-yl)-1-methylcyclobutane-1-carboxylic acid]",0.1 to 0.5
3,"C[C@@H](Nc1cc(N2CCC([C@H]3CCCN(C4CCCC4)C3)CC2)nc2ncnn12)c1ccc(Cl)cc1Cl [Example 10, 5-((R)-1-cyclopentyl-[3,4′-bipiperidin]-1′-yl)-N-((R)-1-(2,4-dichlorophenyl)ethyl)-[1,2,4]triazolo[1,5-a]pyrimidin-7-amine]",< 0.1
4,"Cc1ccc([C@@H](C)Nc2cc(N3CCC([C@H]4CCCN([C@H]5C[C@](C)(C(=O)O)C5)C4)CC3)nc3ncnn23)c(Cl)c1 [Example 30, (1R,3r)-3-((R)-1′-(7-(((R)-1-(2-chloro-4-methylphenyl)ethyl)amino)-[1,2,4]triazolo[1,5-a]pyrimidin-5-yl)-[3,4′-bipiperidin]-1-yl)-1-methylcyclobutane-1-carboxylic acid]",< 0.1
5,"CC(CN1CCC[C@H](C2CCN(c3cc(N[C@H](C)c4ccc(Cl)cc4Cl)n4ncnc4n3)CC2)C1)C(=O)O (mixture of isomers) [Example 15, 3-((R)-1′-(7-(((R)-1-(2,4-dichlorophenyl)ethyl)amino)-[1,2,4]triazolo[1,5-a]pyrimidin-5-yl)-[3,4′-bipiperidin]-1-yl)-2-methylpropanoic acid]",< 0.1
6,"CC(CCN1CCC[C@H](C2CCN(c3cc(N[C@H](C)c4ccc(Cl)cc4Cl)n4ncnc4n3)CC2)C1)C(=O)O (mixture of isomers) [Example 16, 4-((R)-1′-(7-(((R)-1-(2,4-dichlorophenyl)ethyl)amino)-[1,2,4]triazolo[1,5-a]pyrimidin-5-yl)-[3,4′-bipiperidin]-1-yl)-2-methylbutanoic acid]",< 0.1
7,"Cc1ccc([C@@H](C)Nc2cc(N3CCC([C@H]4CCCN([C@H]5C[C@](C)(C(=O)O)C5)C4)CC3)nc3ccnn23)c(Cl)c1 [Example 31, (1R,3r)-3-((R)-1′-(7-(((R)-1-(2-chloro-4-methylphenyl)ethyl)amino)pyrazolo[1,5-a]pyrimidin-5-yl)-[3,4′-bipiperidin]-1-yl)-1-methylcyclobutane-1-carboxylic acid]",< 0.1
8,"CC(=O)NCCN1CCC[C@H](C2CCN(c3cc(N[C@H](C)c4ccc(Cl)cc4Cl)n4ncnc4n3)CC2)C1 [Example 13, N-(2-((R)-1′-(7-(((R)-1-(2,4-dichlorophenyl)ethyl)amino)-[1,2,4]triazolo[1,5-a]pyrimidin-5-yl)-[3,4′-bipiperidin]-1-yl)ethyl)acetamide]",< 0.1
9,"C[C@@H](Nc1cc(N2CCC([C@H]3CCCN(C4CC(S(C)(=O)=O)C4)C3)CC2)nc2ncnn12)c1ccc(Cl)cc1Cl (mixture of isomers) [Example 21, N-((R)-1-(2,4-dichlorophenyl)ethyl)-5-((R)-1-(3-(methylsulfonyl)cyclobutyl)-[3,4′-bipiperidin]-1′-yl)-[1,2,4]triazolo[1,5-a]pyrimidin-7-amine]",< 0.1
10,"C[C@@H](Nc1cc(N2CCC([C@H]3CCCN([C@H]4C[C@](C)(C(=O)O)C4)C3)CC2)nc2ccnn12)c1ccc(Cl)cc1F [Example 38, (1R,3r)-3-((R)-1′-(7-(((R)-1-(4-chloro-2-fluorophenyl)ethyl)amino)pyrazolo[1,5-a]pyrimidin-5-yl)-[3,4′-bipiperidin]-1-yl)-1-methylcyclobutane-1-carboxylic acid]",< 0.1

# Second part, the compound after the results:
row,IC50 [µM],Structure (SMILES)
1,< 0.1,"C[C@@H](Nc1cc(N2CCC([C@H]3CCCN(Cc4nn[nH]n4)C3)CC2)nc2ncnn12)c1ccc(Cl)cc1Cl [Example 2, 5-((R)-1-((2H-tetrazol-5-yl)methyl)-[3,4′-bipiperidin]-1′-yl)-N-((R)-1-(2,4-dichlorophenyl)ethyl)-[1,2,4]triazolo[1,5-a]pyrimidin-7-amine]"
2,< 0.1,"C[C@@H](Nc1cc(N2CCC([C@H]3CCCN(C)C3)CC2)nc2ncnn12)c1ccc(Cl)cc1Cl [Example 9, N-((R)-1-(2,4-dichlorophenyl)ethyl)-5-((R)-1-methyl-[3,4′-bipiperidin]-1′-yl)-[1,2,4]triazolo[1,5-a]pyrimidin-7-amine]"
3,< 0.1,"C[C@@H](Nc1cc(N2CCC([C@H]3CCCN(CCO)C3)CC2)nc2ncnn12)c1ccc(Cl)cc1Cl [Example 8, 2-((R)-1′-(7-(((R)-1-(2,4-dichlorophenyl)ethyl)amino)-[1,2,4]triazolo[1,5-a]pyrimidin-5-yl)-[3,4′-bipiperidin]-1-yl)ethan-1-ol]"
4,< 0.1,"C[C@@H](Nc1cc(N2CCC([C@H]3CCCN(CCS(N)(=O)=O)C3)CC2)nc2ncnn12)c1ccc(Cl)cc1Cl [Example 19, 2-((R)-1′-(7-(((R)-1-(2,4-dichlorophenyl)ethyl)amino)-[1,2,4]triazolo[1,5-a]pyrimidin-5-yl)-[3,4′-bipiperidin]-1-yl)ethane-1-sulfonamide]"
5,< 0.1,"C[C@@H](Nc1cc(N2CCC([C@H]3CCCN(Cc4ncc[nH]4)C3)CC2)nc2ncnn12)c1ccc(Cl)cc1Cl [Example 4, 5-((R)-1-((1H-imidazol-2-yl)methyl)-[3,4′-bipiperidin]-1′-yl)-N-((R)-1-(2,4-dichlorophenyl)ethyl)-[1,2,4]triazolo[1,5-a]pyrimidin-7-amine]"
6,< 0.1,"C[C@@H](Nc1cc(N2CCC([C@H]3CCCN(CCS(C)(=O)=O)C3)CC2)nc2ncnn12)c1ccc(Cl)cc1Cl [Example 12, N-((R)-1-(2,4-dichlorophenyl)ethyl)-5-((R)-1-(2-(methylsulfonyl)ethyl)-[3,4′-bipiperidin]-1′-yl)-[1,2,4]triazolo[1,5-a]pyrimidin-7-amine]"
